Our source for the IC50 values is ChEMBL document CHEMBL6074679, “Diastereoselective synthesis and biological evaluation of new fluorine-containing α-aminophosphonates as anticancer agents and scaffold to human urokinase plasminogen activator inhibitors” (Eur J Med Chem, 2025).

pIC50: −log10 of the molar value.

The subject of data set [1] is SK-OV-3. Kind of data set: Cytotoxicity against human SK-OV-3 cells incubated for 48 hrs by MTT assay. The data set is classed as functional, cell-based. Particulars: SK-OV-3, 48 h. (Formazan colour is commonly taken as a measure of viable cells.)
Data set [2] has as its system A549. Kind of data set: Cytotoxicity against human A549 cells incubated for 48 hrs by MTT assay. The format is functional, cell-based. Particulars: A549, 48 h.
Data set [3] concerns OVCAR-3. Kind of data set: Cytotoxicity against human OVCAR-3 cells incubated for 48 hrs by MTT assay. The data set is classed as functional, cell-based. As to conditions: OVCAR-3, 48 h.
The subject of data set [4] is U-251. Kind of data set: Cytotoxicity against human U-251MG cells incubated for 48 hrs by MTT assay. The format is functional, cell-based. As to conditions: U-251, 48 h.
Data set [5] has as its system U-87 MG. Kind of data set: Cytotoxicity against human U-87 MG cells incubated for 48 hrs by MTT assay. The format is functional, cell-based, U-87MG ATCC.
A short description of data set [6]: Cytotoxicity against human MRC5 cells incubated for 48 hrs by MTT assay. The data set is classed as toxicity, cell-based.
Data set [7] relates to Caco-2. Kind of data set: Cytotoxicity against human Caco-2 cells incubated for 48 hrs by MTT assay. The format is functional, cell-based. Particulars: Caco-2, 48 h.
Data set [8] has as its system MDA-MB-231. Kind of data set: Cytotoxicity against human MDA-MB-231 cells incubated for 48 hrs by MTT assay. The format is functional, cell-based. As to conditions: MDA-MB-231, 48 h.
The subject of data set [9] is U-118-MG. Kind of data set: Cytotoxicity against human U-118 MG cells incubated for 48 hrs by MTT assay. The data set is classed as functional, cell-based.
The target in data set [10] is Urokinase-type plasminogen activator (Homo sapiens, UniProt P00749). Kind of data set: Inhibition of human urokinase uPA using Z-Gly-Gly-Arg-AMC as substrate by fluorescence plate reader assay.
Data set [11] has as its system HepG2. Kind of data set: Cytotoxicity against human HepG2 cells incubated for 48 hrs by MTT assay. The format is functional, cell-based. Particulars: HepG2, 48 h.
The subject of data set [12] is HeLa. Kind of data set: Cytotoxicity against human HeLa cells incubated for 48 hrs by MTT assay. The data set is classed as functional, cell-based.

As a reminder, the pIC50 is the negative decadic logarithm of the IC50, by convention in mol/L. The low end stands for a high IC50, the high end for a low IC50. One may read the IC50 as the midpoint of a concentration-inhibition curve. A low value points to greater potency. For the compound `COP(=O)(OC)C(N[C@@H](C)C(C)(C)C)c1ccc(F)cc1` (stereo partly specified), the negative logarithm of the IC50 (pIC50) in data set [1] is 5.17; in data set [2] it was 5.01; in [3], 4.09; in data set [4] it was 4.68; in data set [5], 4.44; in data set [7], 4.73. Further, the pIC50 is 3.72 in data set [8]; 4.42 in [9]; 3.29 in [10]; 5.17 in data set [11]; 5.22 in data set [12]. This compound registered an IC50 at 48 h in data set [6] of 110 µM.

For `COP(=O)(OC)C(N[C@@H](C)C(C)(C)C)c1c(F)cc(F)cc1F` (stereo partly specified), the pIC50 in data set [1] was 5.15; in data set [2] it was 4.31; in data set [3] it was 4.86; in data set [4], 3.84; in data set [5] it was 4.21; in [7], 4.14. Moreover, the pIC50 is 4.08 in [8]; 3.91 in [9]; 3.14 in [10]; 4.04 in data set [11]; 5.38 in [12]. Moreover, the half-maximal inhibitory concentration (IC50) at 48 h in data set [6] was 15 µM.

As for `CCOP(=O)(OCC)C(N[C@@H](C)C(C)(C)C)c1c(F)cc(F)cc1F` (stereo partly specified), the negative logarithm of the IC50 (pIC50) is 4.78 in data set [1]; 4.48 in data set [2]; 4.26 in data set [3]; 5.12 in [4]; 4.94 in data set [5]; 6.41 in data set [7]. Further, the pIC50 is 4.41 in [8]; 4.39 in data set [9]; 3.17 in data set [10]; 4.33 in data set [11]; 4.97 in data set [12]. Moreover, in data set [6], half-maximal inhibition (IC50 at 48 h) was put at 36.5 µM.
